Reference: patent publication US20240360165A1, “INHIBITORS OF CYCLIN DEPENDENT KINASE 7 (CDK7)” (Syros Pharmaceuticals, Inc., priority 2016, published 2024)
Read-outs that look alike come from different tables or passages of the source.

What was measured:
[1] = target: CDK7/Cyclin H/MAT1 complex (Homo sapiens, UniProt P50613); experiment: CDK7 inhibition assay (Caliper/LabChip EZ Reader kinase assay); type: biochemical
Method: (§1) Compounds of the invention were assayed for inhibition of CDK7, CDK9, CDK12, and CDK2 activity at Biortus Biosciences (Jiangyin, Jiangsu Province, P.R. of China) using kinase assays for each CDK developed with a Caliper/LabChip EZ Reader (Perkin Elmer, Waltham, MA).
(§2) Furthermore, the CDK9 inhibition assay used CDK9/Cyclin T1 complex (8 nM) and “5-FAM-CDK9tide” peptide substrate (2 μM, synthesized fluorophore-labeled peptide with the following sequence: 5-FAM-GSRTPMY-NH2 where 5-FAM is defined above and NH2 signifies a C-terminal amide) with 10 mM MgCl2 in the buffer composition listed above. […] Additionally, the CDK2 inhibition assay used CDK2/Cyclin E1 complex (0.5 nM) and “5-FAM-CDK7tide” ([…]) as defined above, with 2 mM MgCl2 in the buffer composition listed above.

CDK9/Cyclin T1 complex = CDK9/Cyclin T1 complex (Homo sapiens, UniProt P50750); experiment: CDK9 inhibition assay (Caliper/LabChip EZ Reader kinase assay); type: biochemical
Method: as §1, §2

CDK2/Cyclin E1 complex = CDK2/Cyclin E1 complex (Homo sapiens, UniProt P24941); experiment: CDK2 inhibition assay (Caliper/LabChip EZ Reader kinase assay); type: biochemical
Method: as §1, §2

A673 cells = experiment: Inhibition of proliferation of A673 cells (CyQUANT, 72 hour); type: cell-based, human
Method: A673 cells are a cell line derived from human […] Ewing's sarcoma. Representative compounds of the invention were tested at different concentrations (from […]; 0.5 log serial dilutions) for their ability to inhibit the proliferation of A673 cells. Known CDK inhibitors dinaciclib or N-((1S,3R)-3-((5-chloro-4-(1H-indol-3-yl)pyrimidin-2-yl)amino)cyclohexyl)-5-((E)-4-(dimethylamino)but-2-enamido)picolinamide and triptolide were used as positive controls. Cells were grown in Dulbecco's Modified Eagle's Medium, +10% FBS+1 mM Sodium Pyruvate. The cells were cultured at 37° C. in a humidified chamber in the presence of 5% CO2. Proliferation assays were conducted over a 72 hour time period. CyQUANT® (Life Technologies, Chicago, IL USA) was used to assess the anti-proliferative effects of the compounds following manufacturer's directions and utilizing the reagents supplied with the CyQUANT® kit.

[2] = target: T1, CDK12 (aa686-1082)/Cyclin K complex (Homo sapiens, UniProt Q9NYV4); experiment: CDK12 inhibition assay (Caliper/LabChip EZ Reader kinase assay); type: biochemical; settings: Table 1; CDK12 (aa686-1082)/Cyclin K 50 nM, ATP 2 mM, 3 hr at 27° C.
T1 construct: CDK12 (aa686-1082)/Cyclin K complex
Method: as §1, §2

[3] = Table 3, comparison with structural analogs
[4] = Homo sapiens, A673, 72 h, Table 3, comparison with structural analogs, 72 hour proliferation, read-out: A673 Cells
[5] = Table 1, CDK7/Cyclin H/MAT1 6 nM, ATP 2 mM, 35 min at 27° C.
[6] = Table 1, CDK9/Cyclin T1 8 nM, ATP 2 mM, 15 min at 27° C.
[7] = Table 1, CDK2/Cyclin E1 0.5 nM, ATP 2 mM, 35 min at 27° C.
[8] = Homo sapiens, A673, 72 h, A673 cells, 72 hour, CyQUANT, read-out: Inhibition of Proliferation of A673 Cells (calculated IC50)

T1 sequence (Q9NYV4 686-1082, species assumed): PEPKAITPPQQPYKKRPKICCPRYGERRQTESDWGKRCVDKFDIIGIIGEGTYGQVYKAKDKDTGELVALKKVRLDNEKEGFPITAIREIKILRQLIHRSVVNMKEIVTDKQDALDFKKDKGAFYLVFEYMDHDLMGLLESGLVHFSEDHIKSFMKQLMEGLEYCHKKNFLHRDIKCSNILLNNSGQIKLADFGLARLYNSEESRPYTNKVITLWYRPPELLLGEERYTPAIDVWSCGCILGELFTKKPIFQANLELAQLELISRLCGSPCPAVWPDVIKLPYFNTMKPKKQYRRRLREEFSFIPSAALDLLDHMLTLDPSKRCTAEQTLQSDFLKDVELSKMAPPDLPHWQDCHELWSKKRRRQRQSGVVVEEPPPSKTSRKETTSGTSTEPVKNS
T1 sequence (O75909 whole entry partner, species assumed, the tested form may be a part): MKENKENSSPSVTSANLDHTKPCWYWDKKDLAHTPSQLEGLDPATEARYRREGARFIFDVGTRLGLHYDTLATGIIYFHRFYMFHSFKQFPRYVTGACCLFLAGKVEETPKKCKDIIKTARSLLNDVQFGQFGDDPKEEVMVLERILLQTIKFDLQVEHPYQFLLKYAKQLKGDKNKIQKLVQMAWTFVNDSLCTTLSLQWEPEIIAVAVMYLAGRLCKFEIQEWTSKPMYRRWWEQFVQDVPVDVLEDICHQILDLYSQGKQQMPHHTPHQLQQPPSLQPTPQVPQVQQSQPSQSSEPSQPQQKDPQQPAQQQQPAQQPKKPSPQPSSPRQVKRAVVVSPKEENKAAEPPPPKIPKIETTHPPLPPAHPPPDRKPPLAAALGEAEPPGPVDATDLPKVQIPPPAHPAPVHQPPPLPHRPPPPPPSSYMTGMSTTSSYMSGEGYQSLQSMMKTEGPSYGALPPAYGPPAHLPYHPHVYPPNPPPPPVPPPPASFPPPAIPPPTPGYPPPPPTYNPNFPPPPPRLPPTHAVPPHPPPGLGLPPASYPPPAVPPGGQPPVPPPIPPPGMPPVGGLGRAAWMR
CDK7/Cyclin H/MAT1 complex, sequence (P50613 whole entry, species assumed): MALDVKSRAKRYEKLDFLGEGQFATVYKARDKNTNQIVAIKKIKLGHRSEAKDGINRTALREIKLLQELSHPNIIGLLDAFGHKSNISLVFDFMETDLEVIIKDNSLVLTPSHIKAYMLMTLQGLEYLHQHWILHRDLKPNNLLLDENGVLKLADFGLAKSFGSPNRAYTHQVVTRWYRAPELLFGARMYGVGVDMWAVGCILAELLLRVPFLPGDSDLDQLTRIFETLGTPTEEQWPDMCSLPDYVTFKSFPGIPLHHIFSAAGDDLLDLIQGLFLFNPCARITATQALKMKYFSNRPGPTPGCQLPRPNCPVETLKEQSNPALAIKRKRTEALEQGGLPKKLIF
CDK7/Cyclin H/MAT1 complex, sequence (P51946 whole entry partner, species assumed): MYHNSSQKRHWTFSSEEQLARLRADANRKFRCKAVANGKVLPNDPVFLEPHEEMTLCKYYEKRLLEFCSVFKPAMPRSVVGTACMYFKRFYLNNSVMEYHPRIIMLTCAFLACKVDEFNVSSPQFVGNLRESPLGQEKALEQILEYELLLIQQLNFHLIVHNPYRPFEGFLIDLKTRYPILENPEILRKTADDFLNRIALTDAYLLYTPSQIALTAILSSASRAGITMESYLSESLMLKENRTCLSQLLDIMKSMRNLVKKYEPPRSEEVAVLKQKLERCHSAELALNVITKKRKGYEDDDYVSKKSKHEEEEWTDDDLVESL
CDK7/Cyclin H/MAT1 complex, sequence (P51948 whole entry partner, species assumed): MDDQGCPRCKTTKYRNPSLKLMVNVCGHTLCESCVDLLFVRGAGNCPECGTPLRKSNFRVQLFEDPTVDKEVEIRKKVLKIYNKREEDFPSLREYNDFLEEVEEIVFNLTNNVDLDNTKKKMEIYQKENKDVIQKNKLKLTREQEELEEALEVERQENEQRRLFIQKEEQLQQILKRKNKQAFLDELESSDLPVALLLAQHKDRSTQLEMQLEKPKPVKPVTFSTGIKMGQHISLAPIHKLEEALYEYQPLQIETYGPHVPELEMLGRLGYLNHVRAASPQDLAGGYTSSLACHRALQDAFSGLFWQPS
CDK9/Cyclin T1 complex, sequence (P50750 whole entry, species assumed): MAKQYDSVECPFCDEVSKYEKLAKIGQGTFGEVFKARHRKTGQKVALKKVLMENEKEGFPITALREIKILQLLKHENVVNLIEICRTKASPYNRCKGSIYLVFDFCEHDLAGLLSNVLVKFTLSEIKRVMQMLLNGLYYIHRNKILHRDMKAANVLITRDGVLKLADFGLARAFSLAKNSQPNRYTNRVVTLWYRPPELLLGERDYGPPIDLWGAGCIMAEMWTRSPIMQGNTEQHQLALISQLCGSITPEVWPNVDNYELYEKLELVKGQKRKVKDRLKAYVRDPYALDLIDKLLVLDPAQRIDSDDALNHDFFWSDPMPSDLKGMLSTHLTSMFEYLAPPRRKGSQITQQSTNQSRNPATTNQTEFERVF
CDK9/Cyclin T1 complex, sequence (O60563 whole entry partner, species assumed): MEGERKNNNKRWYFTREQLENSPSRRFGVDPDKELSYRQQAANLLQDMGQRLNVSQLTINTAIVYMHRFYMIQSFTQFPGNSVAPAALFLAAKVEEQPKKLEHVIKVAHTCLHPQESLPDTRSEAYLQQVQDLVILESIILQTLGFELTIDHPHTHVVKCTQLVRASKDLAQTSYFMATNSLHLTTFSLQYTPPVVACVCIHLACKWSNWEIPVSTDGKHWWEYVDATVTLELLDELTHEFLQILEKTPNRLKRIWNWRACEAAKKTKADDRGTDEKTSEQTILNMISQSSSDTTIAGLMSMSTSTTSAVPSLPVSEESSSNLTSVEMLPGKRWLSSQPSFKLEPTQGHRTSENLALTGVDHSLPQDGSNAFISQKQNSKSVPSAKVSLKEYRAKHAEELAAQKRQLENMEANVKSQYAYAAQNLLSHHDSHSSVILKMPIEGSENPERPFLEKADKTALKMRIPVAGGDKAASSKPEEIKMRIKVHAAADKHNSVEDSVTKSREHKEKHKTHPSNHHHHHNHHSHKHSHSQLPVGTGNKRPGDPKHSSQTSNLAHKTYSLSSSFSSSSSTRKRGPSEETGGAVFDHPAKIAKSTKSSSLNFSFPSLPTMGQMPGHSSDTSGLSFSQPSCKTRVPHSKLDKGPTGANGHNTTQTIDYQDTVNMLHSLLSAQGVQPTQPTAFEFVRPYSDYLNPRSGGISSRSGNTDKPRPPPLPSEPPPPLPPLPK

FC(F)(F)c1cnc(N[C@H]2CCCNC2)nc1-c1c[nH]c2ccccc12
IC50 [1, 3]: < 20 nM | IC50 (CDK9/Cyclin T1 complex; [3]): 20 to 200 nM | IC50 (CDK2/Cyclin E1 complex; [3]): 200 to 5000 nM | IC50 (A673 cells; [4]): < 20 nM

CC(O)c1cnc(N[C@H]2CCCNC2)nc1-c1c[nH]c2ccccc12 (mixture of isomers) [Compound 234]
IC50 [1, 5]: 200 to 5000 nM | IC50 (CDK9/Cyclin T1 complex; [6]): > 5000 nM | IC50 [2]: > 5000 nM | IC50 (CDK2/Cyclin E1 complex; [7]): > 5000 nM | IC50 (A673 cells; [8]): < 20 nM

CCCCCC1CC[C@H](Nc2ncc(C(F)(F)F)c(-c3c[nH]c4ccccc34)n2)CN1 (mixture of isomers) [Compound 241]
IC50 [1, 5]: 20 to 200 nM | IC50 (CDK9/Cyclin T1 complex; [6]): 200 to 5000 nM | IC50 [2]: 200 to 5000 nM | IC50 (CDK2/Cyclin E1 complex; [7]): 200 to 5000 nM | IC50 (A673 cells; [8]): 20 to 200 nM

O=C(C1CCC(Nc2ncc(C(F)(F)F)c(-c3c[nH]c4ccccc34)n2)CN1)N1CCC(O)C1 (mixture of isomers) [Compound 244]
IC50 [1, 5]: 20 to 200 nM | IC50 (CDK9/Cyclin T1 complex; [6]): > 5000 nM | IC50 [2]: 200 to 5000 nM | IC50 (CDK2/Cyclin E1 complex; [7]): 200 to 5000 nM | IC50 (A673 cells; [8]): 200 to 5000 nM

CC(C)C1CC[C@H](Nc2ncc(C(F)(F)F)c(-c3c[nH]c4ccccc34)n2)CN1 (mixture of isomers) [Compound 257]
IC50 [1, 5]: 20 to 200 nM | IC50 (CDK9/Cyclin T1 complex; [6]): > 5000 nM | IC50 [2]: > 5000 nM | IC50 (CDK2/Cyclin E1 complex; [7]): > 5000 nM | IC50 (A673 cells; [8]): 200 to 5000 nM

FC(F)(F)c1cnc(N[C@@H]2CNC[C@H](c3nnc4ccccn34)C2)nc1-c1c[nH]c2ccccc12 (relative stereo) [Compound 266]
IC50 [1, 5]: 20 to 200 nM | IC50 (CDK9/Cyclin T1 complex; [6]): 200 to 5000 nM | IC50 [2]: 200 to 5000 nM | IC50 (CDK2/Cyclin E1 complex; [7]): 200 to 5000 nM | IC50 (A673 cells; A673 cells, 72 hour, CyQUANT, read-out: Inhibition of Proliferation of A673 Cells (calculated IC50)): 20 to 200 nM

CC1(O)CCC(c2cccc3c(-c4nc(N[C@H]5CCCNC5)ncc4C(F)(F)F)c[nH]c23)CC1 (single isomer, unassigned) [Compound 192]
IC50 [1, 5]: 20 to 200 nM | IC50 (CDK9/Cyclin T1 complex; [6]): 200 to 5000 nM | IC50 [2]: 200 to 5000 nM | IC50 (CDK2/Cyclin E1 complex; [7]): 200 to 5000 nM

CC1(O)CCC(c2cccc3c(-c4nc(N[C@H]5CCCNC5)ncc4C(F)(F)F)c[nH]c23)CC1 (single isomer, unassigned) [Compound 193]
IC50 [1, 5]: 20 to 200 nM | IC50 (CDK9/Cyclin T1 complex; [6]): 200 to 5000 nM | IC50 [2]: 200 to 5000 nM | IC50 (CDK2/Cyclin E1 complex; [7]): 200 to 5000 nM

CC1(C)CCNC[C@@H]1Nc1ncc(C(F)(F)F)c(-c2c[nH]c3ccccc23)n1 (single isomer, unassigned) [Compound 209]
IC50 [1, 5]: 200 to 5000 nM | IC50 (CDK9/Cyclin T1 complex; [6]): > 5000 nM | IC50 [2]: > 5000 nM | IC50 (CDK2/Cyclin E1 complex; [7]): > 5000 nM | IC50 (A673 cells; [8]): 20 to 200 nM

CC1(C)CCNC[C@H]1Nc1ncc(C(F)(F)F)c(-c2c[nH]c3ccccc23)n1 (single isomer, unassigned) [Compound 210]
IC50 [1, 5]: 200 to 5000 nM | IC50 (CDK9/Cyclin T1 complex; [6]): > 5000 nM | IC50 [2]: > 5000 nM | IC50 (CDK2/Cyclin E1 complex; [7]): > 5000 nM | IC50 (A673 cells; [8]): 200 to 5000 nM

FC(F)(F)c1cnc(N[C@H]2CCCNC2)nc1-c1c[nH]c2c(-c3ccncc3)cccc12 [Compound 162]
IC50 [1, 5]: 20 to 200 nM | IC50 (CDK9/Cyclin T1 complex; [6]): 200 to 5000 nM | IC50 [2]: 200 to 5000 nM | IC50 (A673 cells; [8]): < 20 nM

FC(F)(F)c1cnc(N[C@H]2CCCNC2)nc1-c1c[nH]c2c(Br)cccc12 [Compound 163]
IC50 [1, 5]: 20 to 200 nM | IC50 (CDK9/Cyclin T1 complex; [6]): 200 to 5000 nM | IC50 [2]: 200 to 5000 nM | IC50 (A673 cells; [8]): 20 to 200 nM

Cn1cc(-c2cccc3c(-c4nc(N[C@H]5CCCNC5)ncc4C(F)(F)F)c[nH]c23)cn1 [Compound 164]
IC50 [1, 5]: 20 to 200 nM | IC50 (CDK9/Cyclin T1 complex; [6]): 200 to 5000 nM | IC50 [2]: 200 to 5000 nM | IC50 (A673 cells; [8]): < 20 nM

FC(F)(F)c1cnc(N[C@H]2CCCNC2)nc1-c1c[nH]c2cc(N3CCCC3)ccc12 [Compound 213, N-[(3S)-3-piperidyl]-4-(6-pyrrolidin-1-yl-1H-indol-3-yl)-5-(trifluoromethyl) pyrimidin-2-amine]
IC50 (CDK9/Cyclin T1 complex; [6]): > 5000 nM | IC50 (CDK2/Cyclin E1 complex; [7]): > 5000 nM | IC50 (A673 cells; [8]): 20 to 200 nM

C[C@]1(O)CCN(C(=O)c2ccc3c(-c4nc(N[C@H]5CCCNC5)ncc4C(F)(F)F)c[nH]c3c2)C1 [Compound 220, [(3S)-3-hydroxy-3-methyl-pyrrolidin-1-yl]-[3-[2-[[(3S)-3-piperidyl]amino]-5-(trifluoromethyl)pyrimidin-4-yl]-1Hindol-6-yl]methanone]
IC50 [1, 5]: < 20 nM | IC50 (CDK9/Cyclin T1 complex; [6]): > 5000 nM | IC50 [2]: 200 to 5000 nM | IC50 (CDK2/Cyclin E1 complex; [7]): > 5000 nM

FC(F)(F)c1cnc(N[C@H]2CCC3(CCCCC3)NC2)nc1-c1c[nH]c2ccccc12 [Compound 240]
IC50 [1, 5]: 20 to 200 nM | IC50 (CDK9/Cyclin T1 complex; [6]): 200 to 5000 nM | IC50 [2]: 200 to 5000 nM | IC50 (CDK2/Cyclin E1 complex; [7]): 200 to 5000 nM

FC(F)(F)c1cnc(N[C@H]2CCCNC2)nc1-c1c[nH]c2cc(-n3ccnc3)ccc12 [Compound 248, 4-(6-imidazol-1-yl-1H-indol-3-yl)-N-[(3S)-3-piperidyl]-5-(trifluoromethyl) pyrimidin-2-amine]
IC50 [1, 5]: < 20 nM | IC50 (CDK9/Cyclin T1 complex; [6]): 200 to 5000 nM | IC50 [2]: 200 to 5000 nM | IC50 (CDK2/Cyclin E1 complex; [7]): 200 to 5000 nM

CCC(=O)N[C@H]1CNC[C@@H](Nc2ncc(C(F)(F)F)c(-c3c[nH]c4c(S(C)(=O)=O)cccc34)n2)C1 [Compound 254, N-[(3R,5S)-5-[[4-(7-methylsulfonyl-1H-indol-3-yl)-5-(trifluoromethyl)pyrimidin-2-yl]amino]-3-piperidyl]propanamide]
IC50 [1, 5]: 200 to 5000 nM | IC50 (CDK9/Cyclin T1 complex; [6]): > 5000 nM | IC50 [2]: > 5000 nM | IC50 (CDK2/Cyclin E1 complex; [7]): > 5000 nM

CCc1cnc(N[C@H]2CCCNC2)nc1-c1c[nH]c2ncc(F)cc12 [Compound 270, (S)-5-ethyl-4-(5-fluoro-1H-pyrrolo[2,3-b]pyridin-3-yl)-N-(piperidin-3-yl)pyrimidin-2-amine]
IC50 [1, 5]: < 20 nM | IC50 (CDK9/Cyclin T1 complex; [6]): 200 to 5000 nM | IC50 [2]: 200 to 5000 nM | IC50 (CDK2/Cyclin E1 complex; [7]): 200 to 5000 nM

CCc1cnc(N[C@H]2CCCNC2)nc1-c1c[nH]c2c(S(=O)(=O)O)cccc12 [Compound 362, 3-[5-ethyl-2-[[(3S)-3-piperidyl]amino]pyrimidin-4-yl]-1H-indole-7-sulfonic acid]
IC50 [1, 5]: 20 to 200 nM | IC50 (CDK9/Cyclin T1 complex; [6]): > 5000 nM | IC50 [2]: > 5000 nM | IC50 (CDK2/Cyclin E1 complex; [7]): > 5000 nM

CCc1cnc(N[C@H]2CCCNC2)nc1-c1c[nH]c2c(S(=O)O)cccc12 [Compound 363, 3-[5-ethyl-2-[[(3S)-3-piperidyl]amino]pyrimidin-4-yl]-1H-indole-7-sulfinic acid]
IC50 [1, 5]: 20 to 200 nM | IC50 (CDK9/Cyclin T1 complex; [6]): > 5000 nM | IC50 [2]: > 5000 nM | IC50 (CDK2/Cyclin E1 complex; [7]): > 5000 nM

FC(F)(F)c1cnc(N[C@H]2CCCNC2)nc1-c1n[nH]c2ccccc12 [drawing 562]
IC50 [1, 3]: < 20 nM | IC50 (CDK9/Cyclin T1 complex; [3]): 200 to 5000 nM | IC50 (CDK2/Cyclin E1 complex; [3]): 200 to 5000 nM | IC50 (A673 cells; [4]): < 20 nM

C[C@]1(N)CC[C@@H](Nc2ncc(C(F)(F)F)c(-c3c[nH]c4ccccc34)n2)CC1 [reference compound]
IC50 [1, 3]: 200 to 5000 nM | IC50 (CDK9/Cyclin T1 complex; [3]): > 5000 nM | IC50 (CDK2/Cyclin E1 complex; [3]): 200 to 5000 nM | IC50 (A673 cells; [4]): 20 to 200 nM

C[C@]1(N)CC[C@@H](Nc2ncc(C(F)(F)F)c(-c3n[nH]c4ccccc34)n2)CC1 [reference compound]
IC50 [1, 3]: 200 to 5000 nM | IC50 (CDK9/Cyclin T1 complex; [3]): 200 to 5000 nM | IC50 (CDK2/Cyclin E1 complex; [3]): 200 to 5000 nM | IC50 (A673 cells; [4]): 20 to 200 nM
